Assay [1] has as its system MCF7. The assay is described as follows: Ratio of cisplatin IC50 to compound IC50 for human MCF7 cells. In kind it is functional.
The next assay concerns SMMC-7721. The assay is described as follows: Cytotoxicity against human SMMC7721 cells after 48 hrs by MTT assay. It counts as functional, cell-based. The following applies: SMMC-7721, 48 h. (Tetrazolium assays rely on reduction of a dye to a coloured formazan, in cell work by metabolically active cells.)
The subject of assay [2] is SW480. The assay is described as follows: Ratio of cisplatin IC50 to compound IC50 for human SW480 cells. In kind it is functional.
For assay [3], the target named is Serine/threonine-protein kinase mTOR (Homo sapiens) (UniProt P42345). Kind of assay: Inhibition of mTOR (unknown origin) assessed as ratio of cytoplasmic to nuclear level of eukaryotic initiation factor 4E.
Assay [4] has as its system SW480. Kind of assay: Cytotoxicity against human SW480 cells after 48 hrs by MTT assay. In kind it is functional, cell-based. The following applies: SW480, 48 h.
In a further assay the test system is HL-60. The assay is described as follows: Cytotoxicity against human HL60 cells after 48 hrs by MTT assay. It counts as functional, cell-based. The following applies: HL-60, 48 h.
In assay [5] the test system is MCF7. The assay is described as follows: Cytotoxicity against human MCF7 cells after 48 hrs by MTT assay. In kind it is functional, cell-based. The following applies: MCF7, 48 h.
The subject of a further assay is A549. Kind of assay: Cytotoxicity against human A549 cells after 48 hrs by MTT assay. It counts as functional, cell-based. The note with it: A549, 48 h.

The values below come from ChEMBL document CHEMBL2406955, “Synthesis and cytotoxic activities of novel hybrid 2-phenyl-3-alkylbenzofuran and imidazole/triazole compounds” (Bioorg Med Chem Lett, 2013).

As usually defined, the IC50 is the concentration needed to halve the response being measured. Low readings indicate greater potency in that assay, high ones weaker potency in that assay.

In the case of `CCc1n(Cc2c(-c3ccccc3)oc3ccccc23)cc[n+]1Cc1ccccc1Br.[Br-]`, the “Ratio IC50” value in the assay on MCF7 [1] came out at 40.8; with SW480 [2], 40.1. The concentration for half-maximal inhibition (IC50) stood at 520 nM with SMMC-7721; 470 nM in the assay on SW480 [4]; 80 nM in the assay on HL-60; 510 nM in the assay on MCF7 [5]; 550 nM in the assay on A549. Also, the Ratio in assay [3] worked out at 1.07.
As for `Brc1ccccc1C[n+]1cn(Cc2c(-c3ccccc3)oc3ccccc23)c2ccccc21`, the IC50 is 2100 nM with SMMC-7721; 5560 nM with SW480 [4]; 640 nM with HL-60; 4780 nM in the assay with MCF7 [5]; 3340 nM in the assay with A549. The Ratio in assay [3] came to 1.52.
